# From patent publication US4180672A, “2-Organothio-2-cyclopentenones, organothio-cyclopentanes derived therefrom” (Teijin Limited, priority 1976, dated 1979)
# Like-named read-outs stand apart in the source and are kept apart here.
# Experiments:
# [1] = acute toxicity (iv) in mice; conditions: mouse, in vivo
# [2] = tested on: formation of ulcer in rats induced by indomethacin; test: inhibiting action on formation of ulcer in rats induced by indomethacin (peroral); assay type: in vivo, rats (Sprague Dawley); conditions: for Ulcer formation (ulcer coefficient) Average value ± S.E.M.: 7 rats
# Procedure: By the method of Y. H. Lee et al. [Arch. Int. Pharmacodyn. Ther., 192, 370 (1971)], the inhibiting action of dl-11-deoxy-15-methyl-7-thia-PGE1 methyl ester (a compound of formula II) on the formation of ulcer in rats induced by indomethacin, a typical non-steroid anti-inflammatory agent, was evaluated.
# Male rats (Sprague Dawley species; body weight 300 g) were used in the experiment. These rats had been caused to fast for 24 hours in separate cages before the initiation of the experiment. Indomethacin was orally administered to these rats, and 6 hours later, they were killed. Formation of ulcer in the fundus part was examined by measuring the area of the ulcer-forming part under microscope. The dl-11-deoxy-15-methyl-7-thia-PGE1 methyl ester was orally administered at the end of 30 minutes and 3 hours, respectively, after the administration of indomethacin. The ulcer formation inhibiting rate of the dl-11-deoxy-15-methyl-7-thia-PGE1 methyl ester against a predetermined dose of indomethacin was determined.
# The indomethacin was administered as a 0.5 ml aqueous suspension (containing two drops of a Tween-type nonionic surfactant per 14 ml of water). The dl-11-deoxy-15-methyl-7-thia-PGE1 methyl ester was given in the form of a solution in a phosphate buffer containing 0.9% of sodium chloride.
# In the same way as in Referential Example 1, the compounds shown in Table 2 were examined for their inhibiting action on ulcer formation.
Structure (SMILES),"Inhibiting rate (ulcer formation) ([2]; dose 0.4 mg/kg, po)","Inhibiting rate (ulcer formation) ([2]; dose 1.0 mg/kg, po)","Inhibiting rate (ulcer formation) ([2]; dose 2.0 mg/kg, po)",further results
"CCCCC[C@H](O)/C=C/[C@@H]1[C@@H](C/C=C\CCCC(=O)O)[C@@H](O)C[C@H]1O [PGF2α, reference compound]",,,,"LD50 ([1]; iv, female, iv, mice, read-out: acute toxicity LD50): 56 mg/kg; LD50 ([1]; male, iv, mice, read-out: acute toxicity LD50): 60 mg/kg"
"CCCCC[C@H](O)/C=C/[C@@H]1CCC(=O)[C@H]1SCCCCCC(=O)OC [No. 89, 11-Deoxy-7-thia-8,12-diepiprostaglandin E1 methyl ester]",57%,65%,,LD50 ([1]; iv): 20 mg/kg
"CCCCCCCS[C@H]1C(O)CC[C@@H]1SCCCCCC(=O)OC (some centres unmarked) [No. 159, methyl 7,13-dithia-11-hydroxyprostanoate]",15%,,78%,
"COC(=O)CCCCCSC1CCC(O)C1SCCCc1ccccc1 (centres unmarked) [No. 190, methyl 7,13-dithia-11-hydroxy-16-phenyl-17,18,19,20-tetranor-prostanoate]",46%,57%,,
"CCCCCCCS[C@H]1CCC(O)[C@@H]1SCCCCCC(=O)OC (some centres unmarked) [No. 171, methyl 7,13-dithia-9-hydroxyprostanoate]",12%,,,"Inhibiting rate (ulcer formation) ([2]; dose 5.0 mg/kg, po): 75%"
"CCCCCC(C)(O)/C=C/C1CCC(=O)C1SCCCCCC(=O)OC (racemic) [No. 101, dl-11-deoxy-15-methyl-7-thia-PGE1 methyl ester]",66%,99%,,"ED50 ([2]; Rattus norvegicus, po, peroral, indomethacin 20 mg/kg peroral, rats, read-out: ED50 (inhibition of ulcer formation induced by indomethacin)): 0.3 mg/kg; Inhibiting rate (ulcer formation) ([2]; dose 0.1 mg/kg, po): 16%; Ulcer formation (ulcer coefficient) Average value ± S.E.M. ([2]; dose 0.1 mg/kg, po, indomethacin 20 mg/kg peroral): 57.5 ± 14.1; Ulcer formation (ulcer coefficient) Average value ± S.E.M. ([2]; dose 0.4 mg/kg, po, indomethacin 20 mg/kg peroral, *** p 0.001): 23.3 ± 12.4; Ulcer formation (ulcer coefficient) Average value ± S.E.M. ([2]; dose 1.0 mg/kg, po, indomethacin 20 mg/kg peroral, *** p 0.001): 0.6 ± 0.05; inhibition of ulcer formation (in words) ([2]; rats, indomethacin-induced, peroral): markedly inhibited ulcer formation"
"CCCCCC(C)(O)CS[C@H]1CCC(O)[C@@H]1SCCCCCC(=O)OC (some centres unmarked) [No. 182, methyl 7,13-dithia-9,15-dihydroxy-15-methylprostanoate]",25%,,80%,
"CCCCCC(C)(O)CS[C@H]1C(=O)CC[C@@H]1SCCCCCC(=O)O (some centres unmarked) [No. 154, 7,13-dithia-15-hydroxy-15-methyl-11-oxo-prostanoic acid]",,,80%,"LD50 ([1]; acute toxicity (iv) in mice, read-out: LD50): 350 mg/kg"
